Test systems include DLD-1 colon; HOP-18 NSCLC; KM20L2 colon; RXF-631 renal; XF 498 CNS.
Holding throughout (experiment): growth of human tumour cells (NCI), 48 h

This is an account of results in PubChem BioAssay (NCI).

Where “and” joins values, the source holds several entries; their conditions need not be identical. Equal entries are not always repeated.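 Interpolation was linear, between the two tested concentrations surrounding the appropriate level; five concentrations were tested over 48 hours in 96-well plates. The concentration for 50% growth inhibition is given as GI50. Definition used: TGI = concentration required for complete inhibition of growth.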 Where only a bound is given, the exact number is not on record here.

Regarding `CC(C)c1cccc(C(C)C)c1NC(=O)C(=O)Cc1nc2ccc([N+](=O)[O-])cc2[nH]c1=O`, the TGI in the assay on DLD-1 colon, in the assay with HOP-18 NSCLC, in the assay with KM20L2 colon and in the assay on RXF-631 renal was over 100 µM in each case.

Consider `CC1=CC2C(C=C1)S(=O)(=O)N1CC21c1ccccc1` (stereo unspecified), for which the TGI in the assay with DLD-1 colon, in the assay with HOP-18 NSCLC and in the assay on KM20L2 colon was over 100 µM in each case.

On to `CC(C)N(C(=O)C12C3C4C1C1C2C3C41C#N)C(C)C` (stereo unspecified), for which the TGI in the assay with DLD-1 colon, in the assay on HOP-18 NSCLC, in the assay on KM20L2 colon, with RXF-631 renal and with XF 498 CNS was over 100 µM in each case.

Take `CC(=O)Nc1[nH]n(C)c(=O)c1-c1nnc(C)s1`: the TGI in the assay on DLD-1 colon, in the assay on KM20L2 colon, in the assay with RXF-631 renal and in the assay with XF 498 CNS was over 100 µM in each case.

In the case of `COc1cc2c(c(OC)c1OC)-c1ccc(SC)c(=O)cc1[C@@H](NCc1ccc(F)cc1)CC2`, the TGI in the assay on DLD-1 colon was 75 µM and > 100 µM; in the assay with HOP-18 NSCLC it was 51.3 µM and > 100 µM; in the assay on KM20L2 colon, under 0.0075 µM; with RXF-631 renal, 52.4 µM. In addition, the GI50 in the assay with HOP-18 NSCLC is over 100 µM.

As for `CCOC1=C2N=C(C(CC)c3ccccc3F)N=C2C(=O)c2ccccc21` (stereo unspecified), the TGI with KM20L2 colon and with RXF-631 renal was over 100 µM each time.

Take `O=Cc1c[nH]c2c(=O)[nH]cnc12`: the TGI with DLD-1 colon and in the assay with HOP-18 NSCLC was over 100 µM in each case.

In the case of `CC(C)(C)N=CN1C=Cc2nc3ccccc3cc2C1`, the TGI with DLD-1 colon, in the assay on HOP-18 NSCLC, with KM20L2 colon, in the assay with RXF-631 renal and in the assay with XF 498 CNS was over 100 µM throughout.

Take `COCC(C)(C)N=CN1Cc2cc3ccccc3nc2C1`: the TGI in the assay on DLD-1 colon, in the assay on HOP-18 NSCLC, in the assay with KM20L2 colon and in the assay on XF 498 CNS was over 100 µM in each case.

Regarding `COc1ccc2[nH]c3c(c2c1)[C@H](c1ccccc1)C[C@@H]1C(=O)N(c2ccccc2)C(=O)[C@H]31`, the TGI in the assay on DLD-1 colon is over 100 µM; with HOP-18 NSCLC, 6.5 µM; in the assay on KM20L2 colon, over 100 µM; with RXF-631 renal, over 100 µM; in the assay with XF 498 CNS, 55.8 µM.

On to `CN(C)CCNc1ccc2ncn3c4ccccc4c(=O)c1c23`, for which the TGI was found to be 12.8 µM in the assay on DLD-1 colon, 33 µM in the assay on HOP-18 NSCLC and 13.6 µM in the assay with KM20L2 colon.

Turning to `CC(C)/C=C1\CCC(CN(C)C)C1=O` (stereo unspecified), the TGI was determined as 11.2 µM with DLD-1 colon, 8.72 µM in the assay on HOP-18 NSCLC, 28.6 µM with KM20L2 colon and 4.17 µM with XF 498 CNS.

Turning to `Nc1nc2c(N)cc(C(F)(F)F)cc2nc1-c1ccccc1`, the TGI in the assay with DLD-1 colon, in the assay on HOP-18 NSCLC, in the assay with KM20L2 colon and in the assay on XF 498 CNS was over 100 µM each time.

On to `Cc1ccc(C(=O)CC2(O)C(=O)Nc3c(C)cc(Cl)cc32)cc1` (stereo unspecified), for which the TGI with DLD-1 colon, in the assay with HOP-18 NSCLC, with KM20L2 colon, in the assay with RXF-631 renal and in the assay with XF 498 CNS was over 100 µM in each case.

Regarding `CC1=C(c2nc3ccccc3s2)C(=O)OC1(C)C`, the TGI in the assay with DLD-1 colon, in the assay with KM20L2 colon, in the assay on RXF-631 renal and in the assay with XF 498 CNS was over 100 µM throughout.

As to `O=C1[C@@H]2C(c3ccc(Br)cc3)=NO[C@@H]2C(=O)N1c1ccc(Cc2ccc(N3C(=O)[C@H]4C(c5ccc(Br)cc5)=NO[C@H]4C3=O)cc2)cc1`, the GI50 with DLD-1 colon, with HOP-18 NSCLC and with KM20L2 colon was over 40 µM each time. Moreover, the TGI in the assay on DLD-1 colon, with HOP-18 NSCLC, in the assay on KM20L2 colon and in the assay with RXF-631 renal was over 40 µM throughout.

On to `O=C(Cc1ccccc1)NN1C(=O)C(Cl)C1c1ccccc1Cl` (stereo unspecified), for which the TGI in the assay on DLD-1 colon, in the assay with HOP-18 NSCLC, in the assay with KM20L2 colon and in the assay on XF 498 CNS was over 100 µM each time.

Take `COc1cc2ccc3c4ccccc4cnc3c2cc1OC`: the TGI in the assay with DLD-1 colon, with HOP-18 NSCLC, in the assay with KM20L2 colon and in the assay on RXF-631 renal was over 100 µM in each case.

For the compound `CCOc1ccccc1N=Nc1ccc2oc(=O)c(C(C)=O)cc2c1`, the TGI in the assay on DLD-1 colon, in the assay with KM20L2 colon and with XF 498 CNS was over 100 µM each time.

For the compound `N#CC(NNC(=O)Cc1ccccc1)c1cccc(O)c1` (stereo unspecified), the TGI with DLD-1 colon and with HOP-18 NSCLC was over 100 µM each time.

With `COC(=O)C1CC2C=CC=CC(=O)C2(C)C1` (stereo unspecified), the TGI was 28.9 µM in the assay with DLD-1 colon and over 100 µM with KM20L2 colon.
